Assay results as given in patent US6872690B2, “Herbicidal 2-alkynyl-pyri (mi) dines” (WYETH, priority 2001, dated 2005).

Assays:
Assay type in all cases: in vivo
[1] = test system: Echinochloa crus-galli; experiment: Pre-emergence test; conditions: 3 weeks after treatment
Method: (§1) To evaluate their herbicidal activity, compounds according to the invention are tested using a representative range of plants:
(§2) The pre-emergence tests involve spraying a liquid formulation of the compound onto the soil in which the seeds of the plant species mentioned above has recently been sown.
(§3) The soil used in the tests is a prepared horticultural loam. The formulations used in the tests are prepared from solutions of the test compounds in acetone containing 0.4% by weight of an alkyl-phenol/ethylene oxide condensate available under the trade mark TRITON X-155. These acetone solutions are diluted with water and the resulting formulations applied at dosage levels corresponding to 0.013 kg, 0.025 kg, 0.100 kg or 0.400 kg of active material per hectare in a volume equivalent to 900 litres per hectare. In these tests untreated sown soil are used as controls. From 2 to 4 weeks after treatment, the tests are terminated and each pot is examined and rated according to the rating system set forth below: […]

[2] = test system: Abutilon theophrasti; experiment: Pre-emergence test; conditions: 3 weeks after treatment
Method: as §1, §2, §3

[3] = test system: Stellaria media; experiment: Pre-emergence test; conditions: 3 weeks after treatment
Method: as §1, §2, §3

[4] = test system: Galium aparine; experiment: Pre-emergence test; conditions: 3 weeks after treatment
Method: as §1, §2, §3

[5] = test system: Digitaria sanguinalis; experiment: Pre-emergence test; conditions: 3 weeks after treatment
Method: as §1, §2, §3

[6] = test system: Ipomoea hederacea; experiment: Pre-emergence test; conditions: 3 weeks after treatment
Method: as §1, §2, §3

[7] = test system: Zea mays; experiment: Pre-emergence test; conditions: 3 weeks after treatment
Method: as §1, §2, §3

[8] = test system: Lamium purpureum; experiment: Pre-emergence test; conditions: 3 weeks after treatment
Method: as §1, §2, §3

[9] = test system: Alopecurus myosuroides; experiment: Pre-emergence test; conditions: 3 weeks after treatment
Method: as §1, §2, §3

[10] = test system: Triticum aestivum; experiment: Pre-emergence test; conditions: 3 weeks after treatment
Method: as §1, §2, §3

[11] = test system: Cassia obtusifolia; experiment: Pre-emergence test; conditions: 3 weeks after treatment
Method: as §1, §2, §3

[12] = test system: Matricaria inodora; experiment: Pre-emergence test; conditions: 3 weeks after treatment
Method: as §1, §2, §3

[13] = test system: Setaria viridis; experiment: Pre-emergence test; conditions: 3 weeks after treatment
Method: as §1, §2, §3

[14] = test system: Orysa sativa; experiment: Pre-emergence test; conditions: 3 weeks after treatment
Method: as §1, §2, §3

[15] = test system: Glycine max; experiment: Pre-emergence test; conditions: 3 weeks after treatment
Method: as §1, §2, §3

[16] = test system: Echinochloa crus-galli; experiment: Post-emergence herbicidal activity test; conditions: 2-4 weeks after treatment
Method: as §1
(§4) These acetone solutions are diluted with water and the resulting formulations applied at dosage levels equivalent of about 0.025 to 0. 4 kg per hectare of test compound per pot. After spraying the plants are placed on greenhouse benches and are cared for in the usual manner, commensurate with conventional greenhouse practices. From 2 to 4 weeks after treatment, the seedling plants are examined and rated according to the rating system provided above.

[17] = test system: Abutilon theophrasti; experiment: Post-emergence herbicidal activity test; conditions: 2-4 weeks after treatment
Method: as §1, §4

[18] = test system: Stellaria media; experiment: Post-emergence herbicidal activity test; conditions: 2-4 weeks after treatment
Method: as §1, §4

[19] = test system: Galium aparine; experiment: Post-emergence herbicidal activity test; conditions: 2-4 weeks after treatment
Method: as §1, §4

[20] = test system: Digitaria sanguinalis; experiment: Post-emergence herbicidal activity test; conditions: 2-4 weeks after treatment
Method: as §1, §4

[21] = test system: Ipomoea hederacea; experiment: Post-emergence herbicidal activity test; conditions: 2-4 weeks after treatment
Method: as §1, §4

[22] = test system: Zea mays; experiment: Post-emergence herbicidal activity test; conditions: 2-4 weeks after treatment
Method: as §1, §4

[23] = test system: Alopecurus myosuroides; experiment: Post-emergence herbicidal activity test; conditions: 2-4 weeks after treatment
Method: as §1, §4

[24] = test system: Triticum aestivum; experiment: Post-emergence herbicidal activity test; conditions: 2-4 weeks after treatment
Method: as §1, §4

[25] = test system: Cassia obtusifolia; experiment: Post-emergence herbicidal activity test; conditions: 2-4 weeks after treatment
Method: as §1, §4

[26] = test system: Matricaria inodora; experiment: Post-emergence herbicidal activity test; conditions: 2-4 weeks after treatment
Method: as §1, §4

[27] = test system: Setaria viridis; experiment: Post-emergence herbicidal activity test; conditions: 2-4 weeks after treatment
Method: as §1, §4

[28] = test system: Orysa sativa; experiment: Post-emergence herbicidal activity test; conditions: 2-4 weeks after treatment
Method: as §1, §4

[29] = test system: Glycine max; experiment: Post-emergence herbicidal activity test; conditions: 2-4 weeks after treatment
Method: as §1, §4

## Cc1cc(C#Cc2ccccc2)nc(Oc2cc(C(F)(F)F)nn2C)c1 [Example 1, 4-methyl-6-phenylethynyl-2-(1-methyl-3-trifluoromethylpyrazol-5-yloxy)pyridine]
[1]; 0.013 kg/ha
  Assessment (pre-emergence application) ECHCG: 1 (1-Trace effect)
[1]; 0.025 kg/ha
  Assessment (pre-emergence application) ECHCG: 4 (4-Injury)
[1]; 0.100 kg/ha
  Assessment (pre-emergence application) ECHCG: 5 (5-Definite injury)
[1]; 0.400 kg/ha
  Assessment (pre-emergence application) ECHCG: 8 (8-Approaching complete kill)
[2]; 0.013 kg/ha
  Assessment (pre-emergence application) ABUTH: 4 (4-Injury)
[2]; 0.100 kg/ha
  Assessment (pre-emergence application) ABUTH: 5 (5-Definite injury)
[2]; 0.400 kg/ha
  Assessment (pre-emergence application) ABUTH: 9 (9-Complete kill)
[3]; 0.013 kg/ha
  Assessment (pre-emergence application) STEME: 5 (5-Definite injury)
[3]; 0.025 kg/ha
  Assessment (pre-emergence application) STEME: 8 (8-Approaching complete kill)
[3]; 0.100 kg/ha
  Assessment (pre-emergence application) STEME: 9 (9-Complete kill)
[3]; 0.400 kg/ha
  Assessment (pre-emergence application) STEME: 9 (9-Complete kill)
[4]; 0.013 kg/ha
  Assessment (pre-emergence application) GALAP: 1 (1-Trace effect)
[4]; 0.025 kg/ha
  Assessment (pre-emergence application) GALAP: 2 (2-Slight effect)
[4]; 0.100 kg/ha
  Assessment (pre-emergence application) GALAP: 3 (3-Moderate effect)
[4]; 0.400 kg/ha
  Assessment (pre-emergence application) GALAP: 7 (7-Good herbicidal effect)
[5]; 0.013 kg/ha
  Assessment (pre-emergence application) DIGSA: 5 (5-Definite injury)
[5]; 0.025 kg/ha
  Assessment (pre-emergence application) DIGSA: 5 (5-Definite injury)
[5]; 0.100 kg/ha
  Assessment (pre-emergence application) DIGSA: 9 (9-Complete kill)
[5]; 0.400 kg/ha
  Assessment (pre-emergence application) DIGSA: 9 (9-Complete kill)
[6]; 0.013 kg/ha
  Assessment (pre-emergence application) IPOHE: 3 (3-Moderate effect)
[6]; 0.100 kg/ha
  Assessment (pre-emergence application) IPOHE: 4 (4-Injury)
[6]; 0.400 kg/ha
  Assessment (pre-emergence application) IPOHE: 9 (9-Complete kill)
[7]; 0.013 kg/ha
  Assessment (pre-emergence application) ZEAMX: 1 (1-Trace effect)
[7]; 0.025 kg/ha
  Assessment (pre-emergence application) ZEAMX: 2 (2-Slight effect)
[7]; 0.100 kg/ha
  Assessment (pre-emergence application) ZEAMX: 2 (2-Slight effect)
[7]; 0.400 kg/ha
  Assessment (pre-emergence application) ZEAMX: 4 (4-Injury)
[8]; 0.013 kg/ha
  Assessment (pre-emergence application) LAMPU: 7 (7-Good herbicidal effect)
[8]; 0.100 kg/ha
  Assessment (pre-emergence application) LAMPU: 8 (8-Approaching complete kill)
[8]; 0.400 kg/ha
  Assessment (pre-emergence application) LAMPU: 8 (8-Approaching complete kill)
[9]; 0.013 kg/ha
  Assessment (pre-emergence application) ALOMY: 1 (1-Trace effect)
[9]; 0.025 kg/ha
  Assessment (pre-emergence application) ALOMY: 2 (2-Slight effect)
[9]; 0.100 kg/ha
  Assessment (pre-emergence application) ALOMY: 4 (4-Injury)
[9]; 0.400 kg/ha
  Assessment (pre-emergence application) ALOMY: 8 (8-Approaching complete kill)
[10]; 0.013 kg/ha
  Assessment (pre-emergence application) TRZWA: 0 (0-No effect)
[10]; 0.025 kg/ha
  Assessment (pre-emergence application) TRZWA: 0 (0-No effect)
[10]; 0.100 kg/ha
  Assessment (pre-emergence application) TRZWA: 2 (2-Slight effect)
[10]; 0.400 kg/ha
  Assessment (pre-emergence application) TRZWA: 3 (3-Moderate effect)
[11]; 0.013 kg/ha
  Assessment (pre-emergence application) CASOB: 1 (1-Trace effect)
[11]; 0.400 kg/ha
  Assessment (pre-emergence application) CASOB: 8 (8-Approaching complete kill)
[12]; 0.013 kg/ha
  Assessment (pre-emergence application) MATIN: 5 (5-Definite injury)
[12]; 0.025 kg/ha
  Assessment (pre-emergence application) MATIN: 7 (7-Good herbicidal effect)
[12]; 0.100 kg/ha
  Assessment (pre-emergence application) MATIN: 8 (8-Approaching complete kill)
[12]; 0.400 kg/ha
  Assessment (pre-emergence application) MATIN: 8 (8-Approaching complete kill)
[13]; 0.013 kg/ha
  Assessment (pre-emergence application) SETVI: 4 (4-Injury)
[13]; 0.025 kg/ha
  Assessment (pre-emergence application) SETVI: 7 (7-Good herbicidal effect)
[13]; 0.100 kg/ha
  Assessment (pre-emergence application) SETVI: 8 (8-Approaching complete kill)
[13]; 0.400 kg/ha
  Assessment (pre-emergence application) SETVI: 9 (9-Complete kill)
[14]; 0.013 kg/ha
  Assessment (pre-emergence application) ORYSA: 1 (1-Trace effect)
[14]; 0.025 kg/ha
  Assessment (pre-emergence application) ORYSA: 2 (2-Slight effect)
[14]; 0.100 kg/ha
  Assessment (pre-emergence application) ORYSA: 3 (3-Moderate effect)
[14]; 0.400 kg/ha
  Assessment (pre-emergence application) ORYSA: 5 (5-Definite injury)
[15]; 0.100 kg/ha
  Assessment (pre-emergence application) GLXMA: 3 (3-Moderate effect)
[15]; 0.400 kg/ha
  Assessment (pre-emergence application) GLXMA: 4 (4-Injury)
[16]; 0.025 kg/ha
  Post-emergence application ECHCG: 4 (4-Injury)
[16]; 0.100 kg/ha
  Post-emergence application ECHCG: 7 (7-Good herbicidal effect)
[16]; 0.400 kg/ha
  Post-emergence application ECHCG: 8 (8-Approaching complete kill)
[17]; 0.025 kg/ha
  Post-emergence application ABUTH: 4 (4-Injury)
[17]; 0.100 kg/ha
  Post-emergence application ABUTH: 5 (5-Definite injury)
[17]; 0.400 kg/ha
  Post-emergence application ABUTH: 6 (6-Herbicidal effect)
[18]; 0.025 kg/ha
  Post-emergence application STEME: 5 (5-Definite injury)
[18]; 0.100 kg/ha
  Post-emergence application STEME: 6 (6-Herbicidal effect)
[18]; 0.400 kg/ha
  Post-emergence application STEME: 7 (7-Good herbicidal effect)
[19]; 0.025 kg/ha
  Post-emergence application GALAP: 6 (6-Herbicidal effect)
[19]; 0.100 kg/ha
  Post-emergence application GALAP: 6 (6-Herbicidal effect)
[19]; 0.400 kg/ha
  Post-emergence application GALAP: 6 (6-Herbicidal effect)
[20]; 0.025 kg/ha
  Post-emergence application DIGSA: 3 (3-Moderate effect)
[20]; 0.100 kg/ha
  Post-emergence application DIGSA: 7 (7-Good herbicidal effect)
[20]; 0.400 kg/ha
  Post-emergence application DIGSA: 7 (7-Good herbicidal effect)
[21]; 0.025 kg/ha
  Post-emergence application IPOHE: 6 (6-Herbicidal effect)
[21]; 0.400 kg/ha
  Post-emergence application IPOHE: 8 (8-Approaching complete kill)
[22]; 0.025 kg/ha
  Post-emergence application ZEAMX: 2 (2-Slight effect)
[22]; 0.100 kg/ha
  Post-emergence application ZEAMX: 4 (4-Injury)
[22]; 0.400 kg/ha
  Post-emergence application ZEAMX: 5 (5-Definite injury)
[23]; 0.025 kg/ha
  Post-emergence application ALOMY: 4 (4-Injury)
[23]; 0.100 kg/ha
  Post-emergence application ALOMY: 7 (7-Good herbicidal effect)
[23]; 0.400 kg/ha
  Post-emergence application ALOMY: 8 (8-Approaching complete kill)
[24]; 0.025 kg/ha
  Post-emergence application TRZWA: 2 (2-Slight effect)
[24]; 0.100 kg/ha
  Post-emergence application TRZWA: 3 (3-Moderate effect)
[24]; 0.400 kg/ha
  Post-emergence application TRZWA: 3 (3-Moderate effect)
[25]; 0.025 kg/ha
  Post-emergence application CASOB: 6 (6-Herbicidal effect)
[25]; 0.100 kg/ha
  Post-emergence application CASOB: 7 (7-Good herbicidal effect)
[25]; 0.400 kg/ha
  Post-emergence application CASOB: 7 (7-Good herbicidal effect)
[26]; 0.025 kg/ha
  Post-emergence application MATIN: 4 (4-Injury)
[26]; 0.100 kg/ha
  Post-emergence application MATIN: 5 (5-Definite injury)
[26]; 0.400 kg/ha
  Post-emergence application MATIN: 6 (6-Herbicidal effect)
[27]; 0.025 kg/ha
  Post-emergence application SETVI: 7 (7-Good herbicidal effect)
[27]; 0.100 kg/ha
  Post-emergence application SETVI: 8 (8-Approaching complete kill)
[27]; 0.400 kg/ha
  Post-emergence application SETVI: 8 (8-Approaching complete kill)
[28]; 0.025 kg/ha
  Post-emergence application ORYSA: 2 (2-Slight effect)
[28]; 0.100 kg/ha
  Post-emergence application ORYSA: 3 (3-Moderate effect)
[28]; 0.400 kg/ha
  Post-emergence application ORYSA: 4 (4-Injury)
[29]; 0.025 kg/ha
  Post-emergence application GLXMA: 5 (5-Definite injury)
[29]; 0.100 kg/ha
  Post-emergence application GLXMA: 6 (6-Herbicidal effect)
[29]; 0.400 kg/ha
  Post-emergence application GLXMA: 6 (6-Herbicidal effect)
